PubChem BioAssay (NCI)
Where “and” joins values, the source holds several entries; their conditions need not be identical. Equal values may be shown once.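 1) Cells in 96-well plates. 2) Compound, 48 h, 5 concentrations. 3) Linear interpolation between surrounding doses. 4) Unreached endpoint = highest concentration. The concentration for 50% growth inhibition is given as GI50. TGI denotes the concentration required for complete inhibition of growth.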

Key:
Experiment in all cases: NCI anticancer screen, dose series, 48 h
786-0 renal = system: 786-0 renal
A498 renal = system: A498 renal
A549 NSCLC = system: A549 NSCLC
ACHN renal = system: ACHN renal
BT-549 breast = system: BT-549 breast
CAKI-1 renal = system: CAKI-1 renal
CCRF-CEM leukemia = system: CCRF-CEM leukemia
COLO 205 colon = system: COLO 205 colon
DU-145 prostate = system: DU-145 prostate
EKVX NSCLC = system: EKVX NSCLC
HCC-2998 colon = system: HCC-2998 colon
HCT-116 colon = system: HCT-116 colon
HCT-15 colon = system: HCT-15 colon
HL-60(TB) leukemia = system: HL-60(TB) leukemia
HOP-62 NSCLC = system: HOP-62 NSCLC
HOP-92 NSCLC = system: HOP-92 NSCLC
HS 578T breast = system: HS 578T breast
HT29 colon = system: HT29 colon
IGROV1 ovarian = system: IGROV1 ovarian
K-562 leukemia = system: K-562 leukemia
KM12 colon = system: KM12 colon
LOX IMVI melanoma = system: LOX IMVI melanoma
M14 melanoma = system: M14 melanoma
MALME-3M melanoma = system: MALME-3M melanoma
MCF7 breast = system: MCF7 breast
MDA-MB-231 breast = system: MDA-MB-231 breast
MDA-MB-435 = system: MDA-MB-435
MOLT-4 leukemia = system: MOLT-4 leukemia
NCI-H226 lung = system: NCI-H226 lung
NCI-H23 lung = system: NCI-H23 lung
NCI-H460 lung = system: NCI-H460 lung
NCI-H522 lung = system: NCI-H522 lung
NCI/ADR-RES ovarian = system: NCI/ADR-RES ovarian
OVCAR-3 ovarian = system: OVCAR-3 ovarian
OVCAR-4 ovarian = system: OVCAR-4 ovarian
OVCAR-5 ovarian = system: OVCAR-5 ovarian
OVCAR-8 ovarian = system: OVCAR-8 ovarian
PC-3 prostate = system: PC-3 prostate
RPMI-8226 leukemia = system: RPMI-8226 leukemia
RXF 393 renal = system: RXF 393 renal
SF-268 CNS = system: SF-268 CNS
SF-295 CNS = system: SF-295 CNS
SF-539 CNS = system: SF-539 CNS
SK-MEL-2 melanoma = system: SK-MEL-2 melanoma
SK-MEL-28 melanoma = system: SK-MEL-28 melanoma
SK-MEL-5 melanoma = system: SK-MEL-5 melanoma
SK-OV-3 ovarian = system: SK-OV-3 ovarian
SN12C renal = system: SN12C renal
SNB-19 CNS = system: SNB-19 CNS
SNB-75 CNS = system: SNB-75 CNS
SR leukemia = system: SR leukemia
SW-620 colon = system: SW-620 colon
T-47D breast = system: T-47D breast
TK-10 renal = system: TK-10 renal
U251 CNS = system: U251 CNS
UACC-257 melanoma = system: UACC-257 melanoma
UACC-62 melanoma = system: UACC-62 melanoma
UO-31 renal = system: UO-31 renal

## NS(=O)(=O)c1ccc(N=Cc2c(O)[nH]c3ccc4ncsc4c23)cc1
786-0 renal
  GI50: 1.02 µM and 3.67 µM
  TGI: > 25 µM and 18.8 µM
A498 renal
  GI50: 3.69 µM and 6.71 µM
  TGI: 9.95 µM and 14.7 µM
A549 NSCLC
  GI50: 5.02 µM and 9.11 µM
  TGI: > 25 µM
ACHN renal
  GI50: 2.2 µM and 5.31 µM
  TGI: > 25 µM
BT-549 breast
  GI50: 0.693 µM and 2.34 µM
  TGI: 2.06 µM and 9.04 µM
CAKI-1 renal
  GI50: 5.85 µM and 6.52 µM
  TGI: > 25 µM
CCRF-CEM leukemia
  GI50: 0.793 µM and 0.699 µM
  TGI: > 25 µM
COLO 205 colon
  GI50: 1.36 µM and 3.84 µM
  TGI: 5.03 µM and 9.19 µM
DU-145 prostate
  GI50: 0.394 µM and 3.03 µM
  TGI: > 25 µM
EKVX NSCLC
  GI50: 7.91 µM and 8.52 µM
  TGI: > 25 µM
HCC-2998 colon
  GI50: 0.751 µM and 1.41 µM
  TGI: 3.87 µM and 7.05 µM
HCT-116 colon
  GI50: 0.845 µM and 1.78 µM
  TGI: > 25 µM
HCT-15 colon
  GI50: 7.16 µM and 7.13 µM
  TGI: > 25 µM and 24.5 µM
HL-60(TB) leukemia
  GI50: 1.57 µM and 1.93 µM
  TGI: 4.1 µM and 4.79 µM
HOP-62 NSCLC
  GI50: 0.887 µM and 3.49 µM
  TGI: 4.17 µM and 15.1 µM
HOP-92 NSCLC
  GI50: 1.72 µM
  TGI: > 7.33 µM
HS 578T breast
  GI50: 0.783 µM and 1.04 µM
  TGI: > 7.17 µM
HT29 colon
  GI50: 3.5 µM and 8.16 µM
  TGI: > 25 µM
IGROV1 ovarian
  GI50: 6.53 µM and 8.83 µM
  TGI: > 25 µM
K-562 leukemia
  GI50: 1.27 µM and 2.19 µM
  TGI: > 25 µM
KM12 colon
  GI50: 0.566 µM and 1.97 µM
  TGI: 8.58 µM and 18.4 µM
LOX IMVI melanoma
  GI50: 0.85 µM and 2.13 µM
  TGI: > 25 µM
M14 melanoma
  GI50: 2.08 µM and 4.14 µM
  TGI: 6.99 µM and 9.39 µM
MALME-3M melanoma
  GI50: 1.44 µM and 2.27 µM
  TGI: 10.7 µM and > 19 µM
MCF7 breast
  GI50: 0.755 µM and 1.77 µM
  TGI: > 24 µM
MDA-MB-231 breast
  GI50: 1.06 µM and 5.66 µM
  TGI: > 25 µM
MDA-MB-435
  GI50: 2.44 µM and 3.76 µM
  TGI: > 19.5 µM and 18.4 µM
MOLT-4 leukemia
  GI50: 0.476 µM and 0.886 µM
  TGI: 1.57 µM and 4.26 µM
NCI-H226 lung
  GI50: 0.931 µM and 2.94 µM
  TGI: 6.26 µM and 15.5 µM
NCI-H23 lung
  GI50: 1.11 µM and 3.98 µM
  TGI: 7.24 µM and 15.7 µM
NCI-H460 lung
  GI50: 0.764 µM and 5.92 µM
  TGI: > 25 µM
NCI-H522 lung
  GI50: 0.508 µM and 0.532 µM
  TGI: 1.58 µM and 1.88 µM
NCI/ADR-RES ovarian
  GI50: 3.5 µM and 5.42 µM
  TGI: > 25 µM
OVCAR-3 ovarian
  GI50: 0.189 µM and 0.756 µM
  TGI: > 6.36 µM and 3.42 µM
OVCAR-4 ovarian
  GI50: 0.821 µM and 1.87 µM
  TGI: 2.92 µM and 16.1 µM
OVCAR-5 ovarian
  GI50: 2.91 µM and 7.56 µM
  TGI: > 25 µM
OVCAR-8 ovarian
  GI50: 0.75 µM and 1.73 µM
  TGI: > 25 µM
PC-3 prostate
  GI50: 3.1 µM and 2.08 µM
  TGI: > 22.9 µM
RPMI-8226 leukemia
  GI50: 5.6 µM and 7.17 µM
  TGI: > 21.2 µM
RXF 393 renal
  GI50: 0.856 µM and 2.12 µM
  TGI: 2.47 µM and 7.85 µM
SF-268 CNS
  GI50: 0.678 µM and 0.792 µM
  TGI: 2.28 µM and 2.72 µM
SF-295 CNS
  GI50: 4.02 µM and 7.28 µM
  TGI: > 23.2 µM
SF-539 CNS
  GI50: 0.626 µM and 1.08 µM
  TGI: 2 µM and 4.91 µM
SK-MEL-2 melanoma
  GI50: 0.644 µM and 1.15 µM
  TGI: 1.36 µM and 3.07 µM
SK-MEL-28 melanoma
  GI50: 0.858 µM and 2.49 µM
  TGI: 2.55 µM and 10.9 µM
SK-MEL-5 melanoma
  GI50: 1.04 µM and 2.74 µM
  TGI: > 10.5 µM and 15.3 µM
SK-OV-3 ovarian
  GI50: 3.84 µM and 9.75 µM
  TGI: > 25 µM
SN12C renal
  GI50: 0.982 µM and 3.21 µM
  TGI: > 25 µM
SNB-19 CNS
  GI50: 0.885 µM and 2.16 µM
  TGI: > 25 µM
SNB-75 CNS
  GI50: 0.857 µM and 3.64 µM
  TGI: 2.61 µM and 10 µM
SR leukemia
  GI50: 0.213 µM and 0.518 µM
  TGI: > 5.71 µM and 2.11 µM
SW-620 colon
  GI50: 0.891 µM and 1.8 µM
  TGI: > 21.9 µM
T-47D breast
  GI50: 0.781 µM and 2.36 µM
  TGI: 2.16 µM and > 20 µM
TK-10 renal
  GI50: 4.2 µM and 7.65 µM
  TGI: 17.1 µM and 19.1 µM
U251 CNS
  GI50: 0.715 µM and 1.63 µM
  TGI: > 8.07 µM
UACC-257 melanoma
  GI50: 3.11 µM and 6.09 µM
  TGI: 19 µM and 16.6 µM
UACC-62 melanoma
  GI50: 1.05 µM and 3.67 µM
  TGI: 4.71 µM and 9.09 µM
UO-31 renal
  GI50: 4.51 µM and 6.2 µM
  TGI: > 21.3 µM
